Results from patent US6558900B2, “Regulation of apoptosis and in vitro model for studies thereof” (Emory University, priority 1996, dated 2003).

Tested on: hamster liver nuclei
Experiment: DNA fragmentation assay (HeLa S-100 incubated with hamster liver nuclei)
Type: biochemical
Conditions: 1 mM nucleotide, 37° C., 2 hr
Protocol: FIGS. 1A-1D illustrate dATP-dependent activation of CPP32 and DNA fragmentation in vitro. Aliquots (10 μl) of HeLa cell S-100 (50 μg) were incubated alone (lane 1), in the presence of 1 mM ATP (lane 2), or in the presence of 1 mM dATP (lane 3) at 30° C. for 1 hr in a final volume of 20 μl of buffer A. FIG. 1A, samples were subjected to SDS-PAGE and transferred to a nitrocellulose filter, probed with a monoclonal anti-CPP32 antibody, and the antigen/antibody complex was visualized by the ECL method. The filter was exposed to Kodak X-OMAT AR X-ray film for 1 min. In FIG. 1B, an aliquot of 10 μl of in vitro translated, ^35S-labeled PARP was added to each reaction. After 5 min, the samples were subjected to SDS-PAGE and transferred to a nitrocellulose filter. The filter was exposed to film for 2 hr at room temperature. In FIG. 1C, a 5 μl aliquot of in vitro translated, ^35S-labeled SREBP-2 was added to each reaction. After incubation at 30° C. for 30 min, the samples were subjected to SDS-PAGE, the gel was dried and exposed to film for 2 hr at room temperature. […]
FIGS. 2A-2B illustrate the nucleotide specificity for in vitro activation of CPP32 and DNA fragmentation. […] The DNA was isolated, analyzed by 2% agarose gel electrophoresis and visualized by ethidium bromide staining. […]

Nc1ncnc2c1ncn2[C@H]1C[C@H](O)[C@@H](COP(=O)(O)OP(=O)(O)OP(=O)(O)O)O1 [dATP, deoxyadenosine-5-triphosphate]
DNA fragmentation in hamster liver nuclei: induced DNA fragmentation
